Source: Sander's compilation of Henry's law constants (doi:10.1021/je00012a017)

assay: Henry solubility constant Hcp at 301 K (mol/(m3 Pa)); settings: reference: Hansen et al. (1993)

Row | Compound | Henry solubility constant Hcp at 301 K
1 | C1CCCCC1 [cyclohexane] | 6e-05

assay: Henry solubility constant Hcp at 302 K (mol/(m3 Pa)); settings: reference: Hansen et al. (1993)

Row | Compound | Henry solubility constant Hcp at 302 K
2 | c1ccccc1 [benzene] | 0.0015
3 | Cc1ccccc1 [methylbenzene] | 0.0014

assay: Henry solubility constant Hcp at 298.15 K (mol/(m3 Pa)); settings: reference: Hansen et al. (1993)

Row | Compound | Henry solubility constant Hcp
4 | ClC(Cl)(Cl)Cl [tetrachloromethane] | 0.00033
5 | CC(Cl)(Cl)Cl [1,1,1-trichloroethane] | 0.00059
6 | ClCC(Cl)Cl [1,1,2-trichloroethane] | 0.012
7 | Cc1ccc(C)cc1 [1,4-dimethylbenzene] | 0.0012
8 | Cc1ccc2ccccc2c1 [2-methylnaphthalene] | 5e-05
9 | Brc1ccccc1 [bromobenzene] | 0.0053

The next lines start with the values.

Row | Henry solubility constant Hcp | Compound
10 | 0.00087 | CC(C)c1ccccc1 [(2-propyl)-benzene]
11 | 1.9e-05 | CCCCC(C)C [2-methylhexane]
12 | 9.6e-05 | CC1CCCCC1 [methylcyclohexane]
13 | 3e-05 | CCCCCCCC [octane]
14 | 0.0015 | Cc1ccc(C)c(C)c1 [1,2,4-trimethylbenzene]
15 | 6.5e-05 | C1CCCC1 [cyclopentane]
16 | 1.2e-05 | CCCCCCC [heptane]
